Assay results: ChEMBL document CHEMBL1221351, “Styrylpyrones from the medicinal fungus Phellinus baumii and their antioxidant properties” (Bioorg Med Chem Lett, 2010)
Activity calls are given as the source filed them. The calls are words filed in the database; no cut-off is given here.

Tests used:
Assay type in all cases: functional
[1] = Antioxidant activity assessed as inhibition of fenton reaction-induced pBR322 DNA single strand break by agarose gel electrophoresis
[2] = Antioxidant activity assessed as inhibition of fenton reaction-induced pBR322 DNA single strand break by CAS assay
[3] = tested on: Radical scavenging activity; assay: Antioxidant activity assessed as DPPH radical scavenging activity
[4] = Antioxidant activity assessed as ABTS radical scavenging activity

Question: For CC1=CC(=O)C2(O1)c1c(cc(/C=C/c3ccc(O)c(O)c3)oc1=O)OC2c1ccc(O)c(O)c1 (stereo not drawn), which Activity [1] is on record?
Answer: Active

Question: And the Activity [2]?
Answer: Active

Question: For O=c1cc(O)cc([C@H]2c3c(cc(/C=C/c4ccc(O)c(O)c4)oc3=O)O[C@@H]2c2ccc(O)c(O)c2)o1, which Activity [1] is on record?
Answer: Active

Question: What about the Activity [2] of the same compound?
Answer: Active

Question: What does the source list for O=c1cc(O)cc(/C=C/c2ccc(O)c(O)c2)o1?
Answer: Activity [1]: inactive; Activity [2]: Active

Question: Which IC50 [3] does the source give for CC1=CC(=O)[C@H](c2c(O)cc(/C=C/c3ccc(O)c(O)c3)oc2=O)[C@@H](c2ccc(O)c(O)c2)O1 [DAVALLIALACTONE] here?
Answer: 1.2 µM

Question: And the IC50 [4]?
Answer: 2.8 µM

Question: What about the Activity [1] of the same compound?
Answer: Active

Question: What about the Activity [2] of the same compound?
Answer: Active

Question: Which results are given for CC(=O)/C=C(O)/C(=C\c1ccc(O)c(O)c1)c1c(O)cc(/C=C/c2ccc(O)c(O)c2)oc1=O?
Answer: Activity [1]: Active; Activity [2]: Active

Question: Which Activity [1] does the source give for O=c1oc2cc(/C=C/c3ccc(O)c(O)c3)oc(=O)c2c2cc(O)c(O)cc12 here?
Answer: Active

Question: What about the Activity [2] of the same compound?
Answer: Active

Question: What does the source list for COC(=O)CC1=CC(=O)[C@H](c2c(O)cc(/C=C/c3ccc(O)c(O)c3)oc2=O)[C@@H](c2ccc(O)c(O)c2)O1 [BAUMIN]?
Answer: IC50 [3]: 7.5 µM; IC50 [4]: 11.7 µM; Activity [1]: Active; Activity [2]: Active
